The Deep4Chem optical property database
Several values for one entry are separate records, joined by “and”; a condition that tells them apart may be missing. Equal values may be shown once. One block for each compound: values may come before it.

Test: solvent given as SMILES
[1] = in c1cc(-n2c3ccccc3c3ccccc32)cc(-n2c3ccccc3c3ccccc32)c1
[2] = in O=P(c1ccccc1)(c1ccccc1)c1ccccc1Oc1ccccc1P(=O)(c1ccccc1)c1ccccc1

Compound: COc1ccc(N(c2ccccc2)c2ccccc2)cc1
- fluorescence lifetime (in Cc1ccccc1): 1.89 ns

Compound: CCCCN1C(=O)c2cc(Oc3ccc(C(C)(C)C)cc3)c3c4c(Oc5ccc(C(C)(C)C)cc5)cc5c(=O)[nH]/c(=C\c6ccccn6)c6cc(Oc7ccc(C(C)(C)C)cc7)c(c7c(Oc8ccc(C(C)(C)C)cc8)cc(c2c37)C1=O)c4c56
- fluorescence lifetime (in C1CCOC1): 3.33 ns
- fluorescence lifetime (in Cc1ccccc1): 3.57 ns
- fluorescence lifetime (in ClCCl): 4.05 ns

Compound: CCCCCCCCCCCCOc1cc2c3c(ccc4c5c(NC6CCCCC6)cc6c7c(ccc(c1c34)c75)C(=O)N(C1CCCCC1)C6=O)C(=O)N(C1CCCCC1)C2=O
- fluorescence lifetime (in ClC(Cl)Cl): 0.8 ns

Compound: Cn1ccc(-n2cncn2)nc1=O
- fluorescence lifetime (in O): 3.43 ns

Compound: CC(C)(C)c1ccc(C2=c3sc(-c4ccc(C(C)(C)C)cc4)c(-c4ccc(C(C)(C)C)cc4)c3=[N+]3C2=Nc2c(-c4ccc(C(C)(C)C)cc4)c4sc(-c5ccc(C(C)(C)C)cc5)c(-c5ccc(C(C)(C)C)cc5)c4n2[B-]3(F)F)cc1
- fluorescence lifetime (in ClC(Cl)Cl): 1.18 ns

Compound: CCCCCCCCCCc1cc(-c2cc(CCCCCCCCCC)c(-c3cccs3)s2)sc1-c1cccs1
- fluorescence lifetime (in CCC(C)C): 0.38 ns

Compound: O=S(=O)(c1ccc(N2c3ccccc3[Si](c3ccccc3)(c3ccccc3)c3ccccc32)cc1)c1ccc(N2c3ccccc3[Si](c3ccccc3)(c3ccccc3)c3ccccc32)cc1
- fluorescence lifetime [1]: 4 ns

Compound: COc1cc2c(cc1-c1ccc(N(C)C)cc1)Cc1c3c(c4c(c1-2)-c1cc(OC)c(-c2ccc(N(C)C)cc2)cc1C4)C(=O)N(CCC(C)C)C3=O
- fluorescence lifetime (in C1CCOC1): 1.01 ns

Compound: COc1cc(OC)c(C2=C3C(C)=CC(C)=[N+]3[B-](F)(F)n3c(C)cc(C)c32)c(OC)c1
- fluorescence lifetime (in C1CCOC1): 5.7 ns
- fluorescence lifetime (in CCCCCC): 6.35 ns

Compound: CNc1cccc2c1C(=O)c1ccccc1C2=O
- fluorescence lifetime (in C1CCC2CCCCC2C1): 0.446 ns
- fluorescence lifetime (in C1CCCCC1): 0.443 ns
- fluorescence lifetime (in CC1CCCCC1): 0.445 ns
- fluorescence lifetime (in CC#N): 0.204 ns
- fluorescence lifetime (in CCC(C)CC): 0.444 ns
- fluorescence lifetime (in CCCCCC): 0.451 ns
- fluorescence lifetime (in CCOC(C)=O): 0.253 ns

Compound: CCc1c(C)[nH]c(C2=[N+]3C(=C(C)c4c(C)c(CC)c(C)n4[B-]3(F)F)c3ccccc32)c1C
- fluorescence lifetime (in ClCCl): 6.21 ns

Compound: CCOC(=O)CCCCCn1c2ccc(Cl)cc2c(=O)c2cc3c(cc21)c(=O)c1cc(Cl)ccc1n3CCCCCC(=O)OCC
- fluorescence lifetime (in CO): 22.1 ns

Compound: CCCCCCCCCCCCOc1cc2c3c(ccc4c5c(SCCCCCCCCCCCC)cc6c7c(ccc(c1c34)c75)C(=O)N(C1CCCCC1)C6=O)C(=O)N(C1CCCCC1)C2=O
- fluorescence lifetime (in ClC(Cl)Cl): 7.8 ns

Compound: COc1ccc(-c2nnc(-c3cc(-c4nnc(-c5ccc(OC)cc5)o4)c(-n4c5ccccc5c5ccccc54)cc3-n3c4ccccc4c4ccccc43)o2)cc1
- fluorescence lifetime (in Cc1ccccc1): 5.1 ns
- fluorescence lifetime [2]: 7.3 ns

Compound: N#CC(C#N)=C(c1ccc(-n2ccc3ccccc32)cc1)c1ccc(-n2ccc3ccccc32)cc1
- fluorescence lifetime (in Cc1ccccc1): 5.2 ns

Compound: Cc1cc(C)c(B(c2cc3c4c(c(B(c5c(C)cc(C)cc5C)c5c(C)cc(C)cc5C)cc5c4c2CCC5)CCC3)c2c(C)cc(C)cc2C)c(C)c1
- fluorescence lifetime (in CCCCCC): 14.6 ns

Compound: C(=C\c1ccccn1)/c1ccc(N(c2ccc(/C=C/c3ccccn3)cc2)c2ccc(-c3nc4ccccc4nc3-c3ccc(N(c4ccc(/C=C/c5ccccn5)cc4)c4ccc(/C=C/c5ccccn5)cc4)cc3)cc2)cc1
- fluorescence lifetime (in C1CCOC1): 1.17 ns

Compound: CCCCc1cc(-c2cccc(COC)c2)oc1-c1cccc(-c2cc(CCCC)c(-c3cccc(-c4oc(-c5cccc(-c6oc(-c7cccc(COC)c7)cc6CCCC)c5)cc4CCCC)c3)o2)c1
- fluorescence lifetime (in ClC(Cl)Cl): 1.35 ns

Compound: CC(C)(C)NC1=CC2=c3cc(NC(C)(C)C)c4nc(C(F)(F)C(F)(F)C(F)(F)F)nc5c(NC(C)(C)C)cc(c3c54)C3=CC(NC(C)(C)C)=C4N=C(C(F)(F)C(F)(F)C(F)(F)F)N=C1C4C32 (configuration not stated)
- fluorescence lifetime (in C1CCOC1): 6.1 ns

Compound: Cc1nnc(-c2cc(-c3nnc(C)o3)c(-n3c4ccccc4c4ccccc43)cc2-n2c3ccccc3c3ccccc32)o1
- fluorescence lifetime (in Cc1ccccc1): 6.5 ns
- fluorescence lifetime [2]: 8.5 ns

Compound: CC(C)(C)c1cc(-n2c(-c3ccc(C(=C(c4ccccc4)c4ccccc4)c4ccccc4)cc3)cc3c2cc(-c2ccc(C(=C(c4ccccc4)c4ccccc4)c4ccccc4)cc2)n3-c2cc(C(C)(C)C)cc(C(C)(C)C)c2)cc(C(C)(C)C)c1
- fluorescence lifetime (in ClCCl): 0.063 ns

Compound: N#Cc1cc2ccc(cc2)c2cccc3cccc(c4ccc(cc4)cc(C#N)c4ccc(cc4)c4cccc5cccc(c6ccc1cc6)c54)c32
- fluorescence lifetime (in Cc1ccccc1): 20.6 ns

Compound: CC1(C)c2ccccc2N(c2ccc(S(=O)(=O)c3ccc(N4c5ccccc5C(C)(C)c5ccccc54)cc3)cc2)c2ccccc21
- fluorescence lifetime (in C1COCCO1): 21 ns
- fluorescence lifetime (in CC(C)=O): 20 ns
- fluorescence lifetime (in Cc1ccccc1): 20 ns
- fluorescence lifetime (in ClC(Cl)Cl): 21 ns
- fluorescence lifetime [1]: 21 ns

Compound: CC1(C)c2ccccc2N(c2ccccc2)c2ccc(-c3ccc(-c4ccc5c(c4)C(C)(C)c4ccccc4N5c4ccccc4)c4nsnc34)cc21
- fluorescence lifetime (in c1ccc2c(c1)c1ccccc1n2-c1ccc(-c2ccc(-n3c4ccccc4c4ccccc43)cc2)cc1): 7.2 ns

Compound: CCOC(=O)C(C(=O)OCC)C1=[N+]2C(=C(c3ccc(C)cc3)c3ccc(Cl)n3[B-]2(F)F)C=C1
- fluorescence lifetime (in C1CCCCC1): 2.69 ns
- fluorescence lifetime (in C1CCOC1): 2.5 ns
- fluorescence lifetime (in CCOC(C)=O): 2.31 ns
- fluorescence lifetime (in CO): 2.02 ns
- fluorescence lifetime (in Cc1ccccc1): 3.63 ns
- fluorescence lifetime (in ClC(Cl)Cl): 3.67 ns

Compound: CCC1=C(C)C2=Cc3cc(I)c(I)n3[B-](F)(F)[N+]2=C1C
- fluorescence lifetime (in C1CCCCC1): 1.04 ns
- fluorescence lifetime (in CC(C)=O): 0.753 ns
- fluorescence lifetime (in CCO): 0.943 ns
- fluorescence lifetime (in CCOC(C)=O): 0.836 ns
- fluorescence lifetime (in CO): 0.848 ns
- fluorescence lifetime (in OCC(F)(F)F): 0.676 ns

Compound: O=S(=O)([O-])c1cc(S(=O)(=O)Cl)ccc1C1=c2cc3c4c(c2Oc2c1cc1c5c2CCCN5CCC1)CCC[N+]=4CCC3
- fluorescence lifetime (in O): 4.2 ns

The next lines start with the values.

- fluorescence lifetime (in C1CCOC1): 1.64 ns
Compound: CN(C)c1ccc(C2=Nc3scc(-c4ccc([N+](=O)[O-])cc4)[n+]3[B-](F)(F)O2)cc1

- fluorescence lifetime (in CC#N): 6.6 ns
Compound: C[n+]1ccc2c(ccc3c[n+](C)ccc32)c1

- fluorescence lifetime (in CC#N): 3.01 ns
Compound: O=[N+]([O-])c1ccc(/C=C/c2nc3c4ccccc4c4ccccc4c3o2)cc1

- fluorescence lifetime (in CC#N): 2.9 ns
Compound: COc1ccc(-c2nc(/C(C#N)=C/c3ccc(C#N)cc3)sc2-c2ccc(OC)cc2)cc1

- fluorescence lifetime (in ClCCl): 9.2 ns
Compound: [O-][n+]1c(/C=C/c2ccccc2)nc(N2CCOCC2)c2c1CCCC2

- fluorescence lifetime (in CCO): 2.3 ns
- fluorescence lifetime (in ClCCl): 6.3 ns
Compound: O=Cc1cnc(-c2c3ccccc3cc3ccccc23)nc1

- fluorescence lifetime (in CS(C)=O): 0.03 ns
Compound: Cn1c(=O)c(/N=N/c2ccc(Nc3ccc([N+](=O)[O-])cc3S(=O)(=O)O)cc2)c(O)c2ccccc21

- fluorescence lifetime (in C1CCOC1): 2.3 ns
- fluorescence lifetime (in CC#N): 2.7 ns
- fluorescence lifetime (in CCO): 3.65 ns
- fluorescence lifetime (in CS(C)=O): 4.03 ns
Compound: CCOC(=O)c1ccccc1-c1c2ccc(=O)cc-2oc2cc(OC(=O)[C@H](CO[Si](C)(C)C(C)(C)C)NC(=O)OC(C)(C)C)ccc12

- fluorescence lifetime (in ClCCl): 1.39 ns
Compound: Cc1c(C(=O)c2ccc(C(F)(F)F)cc2)c2ccc3cccc4c5cccc6ccc1c(c65)c2c34

- fluorescence lifetime (in ClCCl): 11.6 ns
Compound: COc1ccc(-c2c3cc4ccccc4cc3c(C#Cc3ccccc3)c3cc4cc(C)sc4cc23)cc1

- fluorescence lifetime (in CC#N): 1.24 ns and 1.1 ns
Compound: Cn1c(-c2ccc(-c3nc(-c4ccccc4)c(-c4ccccc4)n3C)cc2)nc(-c2ccccc2)c1-c1ccccc1

- fluorescence lifetime (in CC#N): 2.85 ns
Compound: N#C/C(=C\c1ccc([N+](=O)[O-])cc1)c1nc(-c2ccccc2)cs1

- fluorescence lifetime (in ClCCl): 3.5 ns
Compound: O=P1(c2ccccc2)C(c2ccccc2)=Cc2cc3ccccc3cc21 (configuration not stated)

- fluorescence lifetime (in CC#N): 2.32 ns
- fluorescence lifetime (in CCCCCC): 3.31 ns
- fluorescence lifetime (in CO): 2.5 ns
- fluorescence lifetime (in ClC(Cl)Cl): 2.34 ns
Compound: c1ccc2c(-c3cc(-c4nccs4)nc(-c4nccs4)c3)c3ccccc3cc2c1

- fluorescence lifetime (in CC#N): 0.6 ns
Compound: Cc1ccc(-c2ccc(/C=C/c3ccc(C#N)cc3)cn2)nc1

- fluorescence lifetime (in ClCCl): 3.4 ns
Compound: Cc1cc(-c2ccc(-c3ccccc3)cc2)cc(C)[o+]1

- fluorescence lifetime (in C1CCCCC1): 3.3 ns
- fluorescence lifetime (in ClCCl): 2.5 ns
Compound: CC(C)[Si]1(C(C)C)c2cc(N(C)C)ccc2-c2ccc(C(F)(F)F)cc21

- fluorescence lifetime (in ClCCl): 5.14 ns
Compound: CCOC(=O)COc1ccc(/C=C/c2cc(C)c3n2[B-](F)(F)[N+]2=C(c4[nH]c(C)cc4C)c4ccccc4C2=C3)cc1

- fluorescence lifetime (in ClCCl): 4.2 ns
Compound: CC(C)(C)c1ccc2c(c1)c1cc(C(C)(C)C)ccc1n2-c1ccc(C#Cc2ccc(C=C(C#N)C#N)cc2)cc1

- fluorescence lifetime (in ClCCl): 6.1 ns
Compound: CN(C)c1ccc(C2=Cc3ccccc3P2(=O)c2ccccc2)cc1 (configuration not stated)

- fluorescence lifetime (in ClC(Cl)Cl): 0.8 ns
Compound: O=Cc1ccc(C#CC(C#Cc2ccc(C=O)s2)=Cc2ccc(C=C(C#Cc3ccc(C=O)s3)C#Cc3ccc(C=O)s3)cc2)s1

- fluorescence lifetime (in CCCCCC): 4.36 ns
- fluorescence lifetime (in c1ccccc1): 1.17 ns
Compound: O=C1OC(=O)c2ccc(N(c3ccccc3)c3ccc4ccc5cccc6ccc3c4c56)c3cccc1c23

- fluorescence lifetime (in c1cc(-c2cccc(-n3c4ccccc4c4ccccc43)c2)cc(-n2c3ccccc3c3ccccc32)c1): 14.6 ns
- fluorescence lifetime (in c1ccc2c(c1)c1ccccc1n2-c1ccc2sc3ccc(-n4c5ccccc5c5ccccc54)cc3c2c1): 26.4 ns
- fluorescence lifetime (in c1ccc2c(c1)c1ccccc1n2-c1ccc2sc3ccc(-n4c5ccccc5c5cccnc54)cc3c2c1): 15.8 ns
- fluorescence lifetime (in c1ccc2c(c1)c1cccnc1n2-c1ccc2sc3ccc(-n4c5ccccc5c5cccnc54)cc3c2c1): 19.5 ns
Compound: Cc1cc(-n2c3ccccc3c3ccccc32)c(-n2c3ccccc3c3ccccc32)cc1C#N

- fluorescence lifetime (in CC#N): 1.6 ns
Compound: COc1ccc(C2=[O+][B-](F)(F)OC(c3ccc4c(c3)Cc3ccccc3-4)=C2)cc1

- fluorescence lifetime (in ClCCl): 1.91 ns
Compound: CCCCn1c2ccc(C#N)cc2c2cc(C#N)cc(-c3ccc(N(c4ccccc4)c4ccccc4)cc3)c21

- fluorescence lifetime (in CC#N): 1.88 ns
Compound: Fc1ccc(/C=C/c2nc3c4ccccc4c4ccccc4c3o2)cc1

- fluorescence lifetime (in C1CCCCC1): 10.7 ns
- fluorescence lifetime (in CC#N): 1.8 ns
Compound: COc1cccc2c1-c1ccccc1C2=O

- fluorescence lifetime (in ClCCl): 2.3 ns
Compound: COC(=O)c1cc(=O)n(C)c2cc(-c3ccc(OC)cc3)sc12

- fluorescence lifetime (in CC#N): 2.84 ns
Compound: C=Cc1cc2ccc(N(CC)CC)cc2oc1=O

- fluorescence lifetime (in CC#N): 3.2 ns
Compound: N#C/C(=C\c1ccc(C#N)cc1)c1nc(-c2ccccc2)c(-c2ccccc2)s1

- fluorescence lifetime (in C1CCOC1): 31 ns
Compound: N#Cc1ccc(C=C(c2ccccc2)c2ccccc2)cc1

- fluorescence lifetime (in CC#N): 1.06 ns
Compound: Cc1ccc(-c2ccc(/C=C/c3ccccc3)cn2)nc1

- fluorescence lifetime (in C1CCCCC1): 3.5 ns
Compound: CCCCc1cc2cccc[n+]2[b-]2ccc(-c3cc[b-]4c(c3)c(CCCC)cc3cccc[n+]43)cc21

- fluorescence lifetime (in CC#N): 1.96 ns
- fluorescence lifetime (in CCCCCC): 2.24 ns
- fluorescence lifetime (in CO): 1.86 ns
- fluorescence lifetime (in ClC(Cl)Cl): 2.19 ns
Compound: c1ccc2c(-c3cc(-c4nccs4)nc(-c4nccs4)c3)cccc2c1
